Reference: patent US20250101034A1, “COMPOSITIONS USEFUL FOR MODULATING SPLICING” (SKYHAWK THERAPEUTICS, INC., priority 2021, published 2025)
pIC50: −log10 of the molar value.

Columns and labels:
total ATXN3 protein = assay: ATXN3 total protein assay (MSD, SK-N-MC cells); assay type: cell-based, Human; settings: 48 hours incubation, read-out: ATXN3 Potency - Protein IC50
Method: Human neuroblastoma SK-N-MC cells were seeded at 10,000 cells/well in 384 well plates one day prior to compound treatment. The concentrations of compounds were tested at appropriate doses ranging from 30 μM to 0.6 nM. After incubation for 48 hours, the cells were lysed with 25 μL of lysis buffer containing protease inhibitors, and total ATXN3 protein levels were assessed by Mesoscale Discovery (MSD) assay developed with one pair of anti-ATXN3 antibodies. The capture and detect antibodies were raised in mouse and rabbit respectively. Anti-rabbit MSD-ST antibody was used for secondary antibody.
ATXN3 recombinant protein was used for standards. The readouts were captured with 35 μL of MSD read buffer and multi-array 384-well high binding plates.

[1] = test system: ATXN3 transcripts containing exon 4 (E4E5); assay: ATXN3 quantitative splicing assay (qPCR, SK-N-MC cells); assay type: cell-based; settings: Homo sapiens, 24 h treatment, qPCR E4E5 primers/probe, read-out: ATXN3 Potency - Splicing E4E5 IC50
Method: Human neuroblastoma SK-N-MC cells were plated in 384-well plates at 20,000 cells/well. Twenty-four hours after plating, cells were treated with compounds for 24 h at appropriate concentrations ranging from 30 μM to 0.6 nM (0.3% DMSO). Treated cells were lysed in 15 μL of lysis buffer, and cDNA was synthesized using the Fast Advanced Cells-to-Ct kit. Two μL of each cDNA was used in qPCR reactions to confirm the exon 4 skipped transcripts of ATXN3. A second set of primers/probe E4E5 was used to detect the transcripts containing exon 4. The third set of primers/probe E8E9 was used to detect total gene level of ATXN3. The qPCR reactions were prepared in 384-well plates in 10 μL volume, using TaqMan™ Fast Advanced Master Mix with primers and probes shown in the table below. Reactions were run in a Quant Studio 6 qPCR instrument with default settings.
The primers and probes are listed below in Table 4.

SMILES	pIC50 (total ATXN3 protein)	pIC50 [1]
N[C@@H](CO)Cc1sc2c(NCc3cccs3)cnnc2c1Cl [Compound 91, (2R)-2-amino-3-(7-chloro-4-{[(thiophen-2-yl)methyl]amino}thieno[3,2-c]pyridazin-6-yl)propan-1-ol]	6.30 to 7.00	6.30 to 7.00
Cc1c([C@H](C)[C@@H](C)N)sc2c(NCc3cccs3)cnnc12 [Compound 99, 6-[(2R,3R)-3-aminobutan-2-yl]-7-methyl-N-[(thiophen-2-yl)methyl]thieno[3,2-c]pyridazin-4-amine]	4.40 to 5.00	4.40 to 5.00
Cc1c(C[C@H](C)N)sc2c(NCc3cccs3)cnnc12 [Compound 4, 6-[(2S)-2-aminopropyl]-7-methyl-N-(thiophen-2-ylmethyl)thieno[3,2-c]pyridazin-4-amine]	6.30 to 7.00	5.30 to 6.30
Cc1c(C[C@H](C)N)sc2c(NCn3cccn3)cnnc12 [Compound 15, 6-[(2S)-2-aminopropyl]-7-methyl-N-[(1H-pyrazol-1-yl)methyl]thieno[3,2-c]pyridazin-4-amine]	5.30 to 6.30	5.30 to 6.30
C#Cc1c(C[C@H](C)N)sc2c(NCc3cccs3)cnnc12 [Compound 116, 6-[(2S)-2-aminopropyl]-7-ethynyl-N-[(thiophen-2-yl)methyl]thieno[3,2-c]pyridazin-4-amine]	6.30 to 7.00	7.00 to 11.00
Cc1c([C@@H](C)[C@@H](C)N)sc2c(NCc3cccs3)cnnc12 [Compound 102, 6-[(2S,3R)-3-aminobutan-2-yl]-7-methyl-N-[(thiophen-2-yl)methyl]thieno[3,2-c]pyridazin-4-amine]	4.40 to 5.00	4.40 to 5.00
C[C@H](N)Cc1cc2nncc(NCc3cccs3)c2s1 [Compound 39, 6-[(2S)-2-aminopropyl]-N-[(thiophen-2-yl)methyl]thieno[3,2-c]pyridazin-4-amine]	5.30 to 6.30	5.30 to 6.30
C[C@H](N)Cc1sc2c(NCc3ccco3)cnnc2c1Cl [Compound 101, 6-[(2S)-2-aminopropyl]-7-chloro-N-[(furan-2-yl)methyl]thieno[3,2-c]pyridazin-4-amine]	6.30 to 7.00	6.30 to 7.00
Cc1csc2c(NC(=O)c3cccs3)cnnc12 [Compound 89, N-{7-methylthieno[3,2-c]pyridazin-4-yl}thiophene-2-carboxamide]	4.40 to 5.00	4.40 to 5.00
Cc1c(C[C@@H](N)CO)sc2c(NCc3nccs3)cnnc12 [Compound 5, (2R)-2-amino-3-(7-methyl-4-{[(1,3-thiazol-2-yl)methyl]amino}thieno[3,2-c]pyridazin-6-yl)propan-1-ol]	4.40 to 5.00	4.40 to 5.00
Cc1c(C[C@@H](N)COC(F)(F)F)sc2c(NCc3cccs3)cnnc12 [Compound 132, 6-[(2R)-2-amino-3-(trifluoromethoxy)propyl]-7-methyl-N-[(thiophen-2-yl)methyl]thieno[3,2-c]pyridazin-4-amine]	4.40 to 5.00	4.40 to 5.00
Cc1c(C[C@H](C)N)sc2c(NCc3cnco3)cnnc12 [Compound 46, 6-[(2S)-2-aminopropyl]-7-methyl-N-[(1,3-oxazol-5-yl)methyl]thieno[3,2-c]pyridazin-4-amine]	4.40 to 5.00	4.40 to 5.00
C[C@H](N)Cc1sc2c(NCc3ccco3)cnnc2c1Br [Compound 100, 6-[(2S)-2-aminopropyl]-7-bromo-N-[(furan-2-y1)methyl]thieno[3,2-c]pyridazin-4-amine]	6.30 to 7.00	6.30 to 7.00
Cc1c(C[C@H](C)N)sc2c(NCn3cccc3)cnnc12 [Compound 43, 6-[(2S)-2-aminopropyl]-7-methyl-N-[(1H-pyrrol-1-yl)methyl]thieno[3,2-c]pyridazin-4-amine]	5.00 to 5.30	5.00 to 5.30
Cc1c(C[C@H](C)N)sc2c(NCc3cccs3)c(F)nnc12 [Compound 97, 6-[(2S)-2-aminopropyl]-3-fluoro-7-methyl-N-[(thiophen-2-yl)methyl]thieno[3,2-c]pyridazin-4-amine]	6.30 to 7.00	6.30 to 7.00
